Data published in the NIST ThermoML archive (doi:10.1016/j.tca.2019.01.031).
Numbers after ± are expanded uncertainties.

Legend:
[1] = 298 K; 101.33 kPa; Crystal; X-ray diffraction
[2] = molar heat capacity at constant pressure; conditions: 101.33 kPa, Crystal, DSC
[3] = xn = mol fraction of the nth substance listed; conditions: 298 K, 101.33 kPa, Crystal, X-ray diffraction
[4] = molar heat capacity at constant pressure; xn = mol fraction of the nth substance listed; conditions: 101.33 kPa, Crystal, DSC

O=P([O-])([O-])[O-].[La+3] [lanthanum orthophosphate]
Conditions | mass density [kg/m3]
[1] | 5063 ± 10

[2]
Conditions | molar heat capacity at constant pressure [J/K/mol]
298 K | 97.5 ± 11
300 K | 98 ± 8.7
350 K | 107.3 ± 11
400 K | 114.3 ± 11
450 K | 120 ± 11
500 K | 124.9 ± 9.1
550 K | 129.3 ± 11
600 K | 133.2 ± 9.3
650 K | 136.9 ± 11
700 K | 140.4 ± 11
750 K | 143.8 ± 9.5
800 K | 147.1 ± 11

O=P([O-])([O-])[O-].[La+3] [lanthanum orthophosphate] + O=P([O-])([O-])[O-].O=P([O-])([O-])[O-].[Sr+2].[Th+4]
Conditions | mass density [kg/m3]
[3], x1 = 1 | 5063 ± 10

[4], x1 = 1
Conditions | molar heat capacity at constant pressure [J/K/mol]
298 K | 97.5 ± 11
300 K | 98 ± 8.7
350 K | 107.3 ± 11
400 K | 114.3 ± 11
450 K | 120 ± 11
500 K | 124.9 ± 9.1
550 K | 129.3 ± 11
600 K | 133.2 ± 9.3
650 K | 136.9 ± 11
700 K | 140.4 ± 11
750 K | 143.8 ± 9.5
800 K | 147.1 ± 11

O=P([O-])([O-])[O-].O=P([O-])([O-])[O-].[Sr+2].[Th+4] [strontium thorium(IV) phosphate]
Conditions | mass density [kg/m3]
[1] | 5619 ± 10

[2]
Conditions | molar heat capacity at constant pressure [J/K/mol]
298 K | 177.6 ± 21
300 K | 178.6 ± 17
350 K | 197.2 ± 17
400 K | 210.2 ± 21
450 K | 220 ± 21
500 K | 227.8 ± 18
550 K | 234.2 ± 18
600 K | 239.6 ± 15
650 K | 244.4 ± 18
700 K | 248.8 ± 18
750 K | 252.8 ± 22
800 K | 256.6 ± 22

O=P([O-])([O-])[O-].O=P([O-])([O-])[O-].[Sr+2].[Th+4] [strontium thorium(IV) phosphate] + O=P([O-])([O-])[O-].[La+3]
[3]
Conditions | mass density [kg/m3]
x2 = 0 | 5619 ± 9
x2 = 0.333 | 5505 ± 12
x2 = 0.571 | 5395 ± 13
x2 = 0.75 | 5295 ± 15
x2 = 0.889 | 5203 ± 20

molar heat capacity at constant pressure [J/K/mol], [4]
Conditions | x2 = 0 | x2 = 0.333 | x2 = 0.571 | x2 = 0.75 | x2 = 0.889
298 K | 177.6 ± 21 | 172.2 ± 18 | 148.6 ± 18 | 130.3 ± 14 | 117 ± 12
300 K | 178.6 ± 17 | 172.9 ± 15 | 149.2 ± 13 | 130.6 ± 11 | 117.4 ± 10
350 K | 197.2 ± 18 | 186.9 ± 18 | 158.5 ± 18 | 139.5 ± 14 | 127.5 ± 10
400 K | 210.2 ± 21 | 197.9 ± 18 | 166.3 ± 16 | 146.8 ± 14 | 135.2 ± 8.5
450 K | 220 ± 22 | 207.2 ± 18 | 173.1 ± 16 | 153.1 ± 12 | 141.5 ± 12
500 K | 227.8 ± 18 | 215.5 ± 16 | 179.1 ± 13 | 158.8 ± 14 | 147.1 ± 13
550 K | 234.2 ± 18 | 223.2 ± 16 | 184.8 ± 16 | 164 ± 12 | 152.1 ± 15
600 K | 239.6 ± 15 | 230.4 ± 19 | 190.3 ± 19 | 169.1 ± 14 | 156.8 ± 11
650 K | 244.4 ± 18 | 237.2 ± 16 | 195.5 ± 16 | 173.9 ± 12 | 161.1 ± 11
700 K | 248.8 ± 18 | 243.9 ± 19 | 200.6 ± 14 | 178.6 ± 14 | 165.3 ± 13
750 K | 252.8 ± 22 | 250.2 ± 19 | 205.6 ± 14 | 183.3 ± 12 | 169.3 ± 11
800 K | 256.6 ± 22 | 256.6 ± 22 | 210.6 ± 16 | 187.8 ± 14 | 173.2 ± 13

[O-2].[O-2].[Zr+4] [zirconium oxide]
[2]
Conditions | molar heat capacity at constant pressure [J/K/mol]
313 K | 56.9 ± 6.3
323 K | 57.7 ± 4.5
333 K | 58.6 ± 6.3
343 K | 59.3 ± 4.5
353 K | 60 ± 2.9
363 K | 60.7 ± 4.5
373 K | 61.4 ± 4.6
383 K | 61.9 ± 3
393 K | 62.5 ± 4.6
403 K | 63 ± 4.6
413 K | 63.6 ± 4.6
423 K | 64 ± 3
433 K | 64.5 ± 3
443 K | 64.9 ± 3
453 K | 65.4 ± 4.6
463 K | 65.8 ± 4.6
473 K | 66.2 ± 4.6
483 K | 66.6 ± 4.6
493 K | 66.9 ± 3.1
503 K | 67.3 ± 4.7
513 K | 67.6 ± 4.7
523 K | 68 ± 4.7
533 K | 68.3 ± 4.7
543 K | 68.6 ± 3.1
553 K | 68.9 ± 3.2
563 K | 69.2 ± 4.7
573 K | 69.5 ± 4.7
583 K | 69.8 ± 3.2
593 K | 70.1 ± 4.7
603 K | 70.4 ± 4.7
613 K | 70.6 ± 4.7
623 K | 70.9 ± 3.2
633 K | 71.2 ± 4.7
643 K | 71.4 ± 4.7
653 K | 71.7 ± 4.7
663 K | 71.9 ± 3.2
673 K | 72.2 ± 3.2
683 K | 72.4 ± 3.2
693 K | 72.7 ± 4.8
703 K | 72.9 ± 4.8
713 K | 73.1 ± 4.8
723 K | 73.4 ± 4.8
733 K | 73.6 ± 4.8
743 K | 73.8 ± 6.5
753 K | 74.1 ± 6.5
763 K | 74.3 ± 4.8
773 K | 74.5 ± 6.6
783 K | 74.7 ± 4.8
793 K | 74.9 ± 6.6
800 K | 75.1 ± 4.8
